Source: US20260200920A1, “SUBSTITUTED AMINOPYRIDINE COMPOUNDS FOR USE AS AKT1 INHIBITORS” (Atavistik Bio, Inc., priority 2023, published 2026)

Assays:
[1] = molecular target: T1, human recombinant kinase full-length wildtype AKT1 (Homo sapiens, UniProt P31749); assay: AKT1 kinase assay (wildtype, TR-FRET, Lance); assay type: biochemical; conditions: 0.6 nM wildtype AKT1, 50 nM Ulight-CREBtide, either 50 μM ATP or 2 mM ATP, 60 min at RT
T1 construct: Purified human recombinant kinase full-length wildtype AKT1 was expressed in insect cells; made in house; host or cells: insect cells
T1 sequence (P31749 whole entry): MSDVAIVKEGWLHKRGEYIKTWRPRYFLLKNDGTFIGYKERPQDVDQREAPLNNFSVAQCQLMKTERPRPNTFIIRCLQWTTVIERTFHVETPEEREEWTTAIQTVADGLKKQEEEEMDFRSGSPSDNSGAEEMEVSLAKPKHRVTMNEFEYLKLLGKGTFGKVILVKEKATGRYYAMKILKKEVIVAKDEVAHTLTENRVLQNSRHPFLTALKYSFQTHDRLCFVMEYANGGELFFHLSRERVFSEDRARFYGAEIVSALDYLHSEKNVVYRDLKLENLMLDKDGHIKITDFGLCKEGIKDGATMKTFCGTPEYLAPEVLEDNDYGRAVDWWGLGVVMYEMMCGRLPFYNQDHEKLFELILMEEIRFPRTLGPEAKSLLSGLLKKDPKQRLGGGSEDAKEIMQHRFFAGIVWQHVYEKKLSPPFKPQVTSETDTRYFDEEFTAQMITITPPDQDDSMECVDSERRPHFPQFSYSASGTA
Method in brief: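 TR-FRET 665/620 ratio quantified phospho-CREBtide formed by PDPK1-activated full-length human AKT1 (0.6 nM, insect-cell-derived) over 60 min at RT with 50 nM ULight-CREBtide and either 50 μM or 2 mM ATP. Compounds were preincubated 15 min with enzyme; IC50 came from 4-parameter fits of 10-point duplicates.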

[2] = molecular target: T2, human recombinant kinase full-length AKT1 E17K (Homo sapiens, UniProt P31749, E17K); assay: AKT1 E17K kinase assay (TR-FRET, Lance); assay type: biochemical; conditions: 0.6 nM AKT1 E17K, 50 nM Ulight-CREBtide, either 50 μM ATP or 2 mM ATP, 60 min at RT
T2 construct: Purified human recombinant kinase full-length AKT1 E17K was expressed in insect cells; made in house; host or cells: insect cells
T2 sequence (P31749 whole entry E17K): as the sequence (P31749 whole entry) above, with E17K counted along it
Method in brief: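 IC50 came from a 10-point, 4-parameter fit of the 665/620 TR-FRET ratio read with Eu-anti-phospho-CREB (Ser133). Reaction at RT for 60 min after 15 min compound preincubation, using 0.6 nM PDPK1-activated full-length AKT1 E17K (insect-cell), 50 nM Ulight-CREBtide, ATP at 50 μM or 2 mM, HEPES pH 7.5, 1% DMSO.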

| IC50 [1] | IC50 [2] | SMILES |
| --- | --- | --- |
| < 20000 nM | < 500 nM | Nc1ncccc1-c1nc2ccc(-c3ccccc3)nc2n1-c1ccc(CN2CCC(CC(=O)O)C2)cc1 (stereo not drawn) [Compound I-94, 2-(1-(4-(2-(2-aminopyridin-3-yl)-5-phenyl-3H-imidazo[4,5-b]pyridin-3-yl)benzyl)pyrrolidin-3-yl)acetic acid] |
| < 20000 nM | < 500 nM | CN(Cc1ccc(-n2c(-c3cccnc3N)nc3ccc(-c4ccccc4)nc32)cc1)[C@H]1CC[C@@H](C(=O)O)CC1 [Compound I-95, (1s,4s)-4-((4-(2-(2-aminopyridin-3-yl)-5-phenyl-3H-imidazo[4,5-b]pyridin-3-yl)benzyl)(methyl)amino)cyclohexane-1-carboxylic acid] |
| < 20000 nM | < 500 nM | CN(Cc1ccc(-n2c(-c3cccnc3N)nc3ccc(-c4ccccc4)nc32)cc1)[C@H]1CC[C@H](C(=O)O)CC1 [Compound I-96, (1r,4r)-4-((4-(2-(2-aminopyridin-3-yl)-5-phenyl-3H-imidazo[4,5-b]pyridin-3-yl)benzyl)(methyl)amino)cyclohexane-1-carboxylic acid] |
| < 20000 nM | 500 to 2000 nM | Nc1ncccc1-c1nc2ccc(-c3ccccc3)nc2n1-c1ccc(CN2CCC(CC(=O)O)CC2)cc1 [Compound I-97, 2-(1-(4-(2-(2-aminopyridin-3-yl)-5-phenyl-3H-imidazo[4,5-b]pyridin-3-yl)benzyl)piperidin-4-yl)acetic acid] |
| < 20000 nM | ≥ 2000 nM | CC(C(=O)O)C1CCN(Cc2ccc(-n3c(-c4cccnc4N)nc4ccc(-c5ccccc5)nc43)cc2)CC1 (stereo not drawn) [Compound I-98, 2-(1-(4-(2-(2-aminopyridin-3-yl)-5-phenyl-3H-imidazo[4,5-b]pyridin-3-yl)benzyl)piperidin-4-yl)propanoic acid] |
| < 20000 nM | ≥ 2000 nM | CC1(C)CC(C(=O)O)CCN1Cc1ccc(-n2c(-c3cccnc3N)nc3ccc(-c4ccccc4)nc32)cc1 (stereo not drawn) [Compound I-99, 1-(4-(2-(2-aminopyridin-3-yl)-5-phenyl-3H-imidazo[4,5-b]pyridin-3-yl)benzyl)-2,2-dimethylpiperidine-4-carboxylic acid] |
| < 20000 nM | 500 to 2000 nM | Cc1cc(NC(=O)C2CC3(CC(C(=O)O)C3)C2)ccc1-n1c(-c2cccnc2N)nc2ccc(-c3ccccc3)nc21 (stereo not drawn) [Compound I-100, 6-((4-(2-(2-aminopyridin-3-yl)-5-phenyl-3H-imidazo[4,5-b]pyridin-3-yl)-3-methylphenyl)carbamoyl)spiro[3.3]heptane-2-carboxylic acid] |
| < 20000 nM | ≥ 2000 nM | Cc1c(-n2c(-c3cccnc3N)nc3ccc(-c4ccccc4)nc32)ccc(NC(=O)C2CC3(CC(C(=O)O)C3)C2)c1F (stereo not drawn) [Compound I-101, 6-((4-(2-(2-aminopyridin-3-yl)-5-phenyl-3H-imidazo[4,5-b]pyridin-3-yl)-2-fluoro-3-methylphenyl)carbamoyl)spiro[3.3]heptane-2-carboxylic acid] |
| < 20000 nM | 500 to 2000 nM | Cc1cc(NC(=O)[C@H]2CC[C@H](C(=O)O)CC2)ccc1-n1c(-c2cccnc2N)nc2ccc(-c3ccccc3)nc21 [Compound I-102, (1r,4r)-4-((4-(2-(2-aminopyridin-3-yl)-5-phenyl-3H-imidazo[4,5-b]pyridin-3-yl)-3-methylphenyl)carbamoyl)cyclohexane-1-carboxylic acid] |
| < 20000 nM | ≥ 2000 nM | Cc1c(-n2c(-c3cccnc3N)nc3ccc(-c4ccccc4)nc32)ccc(NC(=O)[C@H]2CC[C@H](C(=O)O)CC2)c1F [Compound I-103, (1r,4r)-4-((4-(2-(2-aminopyridin-3-yl)-5-phenyl-3H-imidazo[4,5-b]pyridin-3-yl)-2-fluoro-3-methylphenyl)carbamoyl)cyclohexane-1-carboxylic acid] |
| < 20000 nM | 500 to 2000 nM | CC(C(=O)O)C1CCN(Cc2ccc(-n3c(-c4cccnc4N)nc4ccc(-c5ccccc5)nc43)cc2)C1 (stereo not drawn) [Compound I-104, 2-[1-[[4-[2-(2-amino-3-pyridyl)-5-phenyl-imidazo[4,5-b]pyridin-3-yl]phenyl]methyl]pyrrolidin-3-yl]propanoic acid] |
| < 20000 nM | 500 to 2000 nM | CC(C)(C(=O)O)C1CCN(Cc2ccc(-n3c(-c4cccnc4N)nc4ccc(-c5ccccc5)nc43)cc2)C1 (stereo not drawn) [Compound I-105, 2-[1-[[4-[2-(2-amino-3-pyridyl)-5-phenyl-imidazo[4,5-b]pyridin-3-yl]phenyl]methyl]pyrrolidin-3-yl]-2-methyl-propanoic acid] |
| < 20000 nM | 500 to 2000 nM | Nc1ncccc1-c1nc2ccc(-c3ccccc3)nc2n1-c1ccc(NC(=O)N2CCC(C(=O)O)CC2)c(F)c1 [Compound I-106, 1-[[4-[2-(2-amino-3-pyridyl)-5-phenyl-imidazo[4,5-b]pyridin-3-yl]-2-fluoro-phenyl]carbamoyl]piperidine-4-carboxylic acid] |
| < 20000 nM | ≥ 2000 nM | Nc1ncccc1-c1nc2ccc(-c3ccccc3)nc2n1-c1ccc(N2CC3(CC(C(=O)O)C3)C2)nc1 [Compound I-107, 2-(5-(2-(2-aminopyridin-3-yl)-5-phenyl-3H-imidazo[4,5-b]pyridin-3-yl)pyridin-2-yl)-2-azaspiro[3.3]heptane-6-carboxylic acid] |
| < 20000 nM | 500 to 2000 nM | Cc1nc(NC(=O)C2CCC(C(=O)O)CC2)ccc1-n1c(-c2cccnc2N)nc2ccc(-c3ccccc3)nc21 (stereo not drawn) [Compound I-108, 4-((5-(2-(2-aminopyridin-3-yl)-5-phenyl-3H-imidazo[4,5-b]pyridin-3-yl)-6-methylpyridin-2-yl)carbamoyl)cyclohexane-1-carboxylic acid] |
| < 20000 nM | 500 to 2000 nM | Cc1nc(NC2CCC(C(=O)O)CC2)ccc1-n1c(-c2cccnc2N)nc2ccc(-c3ccccc3)nc21 (stereo not drawn) [Compound I-109, 4-((5-(2-(2-aminopyridin-3-yl)-5-phenyl-3H-imidazo[4,5-b]pyridin-3-yl)-6-methylpyridin-2-yl)amino)cyclohexane-1-carboxylic acid] |
| < 20000 nM | ≥ 2000 nM | Nc1ncccc1-c1nc2ccc(-c3ccccc3)cc2n1-c1ccc(NC(=O)C2CCC(C(=O)O)C2)nc1 (stereo not drawn) [Compound I-110, 3-((5-(2-(2-aminopyridin-3-yl)-6-phenyl-1H-benzo[d]imidazol-1-yl)pyridin-2-yl)carbamoyl)cyclopentane-1-carboxylic acid] |
| < 20000 nM | 500 to 2000 nM | Nc1ncccc1-c1nc2ccc(-c3ccccc3)cc2n1-c1ccc(NC(=O)C2CCCC(C(=O)O)C2)nc1 (stereo not drawn) [Compound I-111, 3-((5-(2-(2-aminopyridin-3-yl)-6-phenyl-1H-benzo[d]imidazol-1-yl)pyridin-2-yl)carbamoyl)cyclohexane-1-carboxylic acid] |
| < 20000 nM | < 500 nM | Nc1ncccc1-c1nc2ccc(-c3ccccc3)nc2n1-c1ccc(NC(=O)C2CC3(CC(C(=O)O)C3)C2)nc1 (stereo not drawn) [Compound I-112, 6-((5-(2-(2-aminopyridin-3-yl)-5-phenyl-3H-imidazo[4,5-b]pyridin-3-yl)pyridin-2-yl)carbamoyl)spiro[3.3]heptane-2-carboxylic acid] |
| < 20000 nM | 500 to 2000 nM | COC(=O)[C@H]1CC[C@H](C(=O)Nc2ccc(-n3c(-c4cccnc4N)nc4ccc(-c5ccccc5)nc43)cn2)CC1 [Compound I-113, methyl (1r,4r)-4-((5-(2-(2-aminopyridin-3-yl)-5-phenyl-3H-imidazo[4,5-b]pyridin-3-yl)pyridin-2-yl)carbamoyl)cyclohexane-1-carboxylate] |
| < 20000 nM | 500 to 2000 nM | Nc1ncccc1-c1nc2ccc(-c3ccccc3)nc2n1-c1ccc(NC[C@H]2CC[C@@H](C(=O)O)CC2)nc1 [Compound I-114, (1s,4s)-4-(((5-(2-(2-aminopyridin-3-yl)-5-phenyl-3H-imidazo[4,5-b]pyridin-3-yl)pyridin-2-yl)amino)methyl)cyclohexane-1-carboxylic acid] |
| < 20000 nM | < 500 nM | Nc1ncccc1-c1nc2ccc(-c3ccccc3)nc2n1-c1ccc(NC(=O)[C@H]2CC[C@H](C(N)=O)CC2)nc1 [Compound I-115, (1r,4r)-N-(5-(2-(2-aminopyridin-3-yl)-5-phenyl-3H-imidazo[4,5-b]pyridin-3-yl)pyridin-2-yl)cyclohexane-1,4-dicarboxamide] |
| < 20000 nM | 500 to 2000 nM | Cn1nccc1-c1ccc2nc(-c3cccnc3N)n(-c3ccc(NC(=O)[C@H]4CC[C@H](C(=O)O)CC4)nc3)c2n1 [Compound I-116, (1r,4r)-4-((5-(2-(2-aminopyridin-3-yl)-5-(1-methyl-1H-pyrazol-5-yl)-3H-imidazo[4,5-b]pyridin-3-yl)pyridin-2-yl)carbamoyl)cyclohexane-1-carboxylic acid] |
| < 20000 nM | ≥ 2000 nM | CC(C)(C)c1ccc2nc(-c3cccnc3N)n(-c3ccc(NC(=O)[C@H]4CC[C@H](C(=O)O)CC4)nc3)c2c1 [Compound I-117, (1r,4r)-4-((5-(2-(2-aminopyridin-3-yl)-6-(tert-butyl)-1H-benzo[d]imidazol-1-yl)pyridin-2-yl)carbamoyl)cyclohexane-1-carboxylic acid] |
